According to patent US20070060595A1, “Novel fused heterocyclic compound and use thereof” (priority 2003, published 2007):
pIC50: −log10 of the molar value.

Biological target: recombinant human JNK (JNK1, JNK2)
Assay: JNK inhibitory activity, enzyme assay (phosphorylation of biotinylated ATF2, Alpha Screen detection)
Type: biochemical
Details: JNK isoform not stated
Method: 5 μL of kinase buffer (25 mM Tris-HCl (pH 7.5), 5 mM β-glycerophosphoric acid, 2 mM dithiothreitol, 0.1 mM Na3VO4, 10 mM MgCl2) including recombinant human JNK (JNK1: Upstate Biotechnology #14-327, JNK2: Upstate Biotechnology #14-329) was added to well of 384-well plate for fluorescence assay (5 μL) (JNK1: 20 μU/well, JNK2: 50 μU/well). Then, kinase buffer including the compound of the present invention was added into it to carry out incubation for 20 minutes at room temperature. Subsequently, substrate mixture prepared with kinase buffer [biotinylated ATF2 (5 μg/mL) (Upstate Biotechnology #14-432), adenosine triphosphate (JNK1 activity measurement: 2 μmol/L, JNK2 activity measurement: 5 μmol/L) (Cell Signaling Technology #9804), anti-phosphorylated ATF2 antibody (20-fold dilution) (Cell Signaling Technology #9221L)] was added to carry out enzyme reaction for 30 minutes at 30° C. […] The amount of complex between phosphorylated ATF2 and anti-phosphorylated ATF2 was measured with Alpha Screen™ Rabbit Detection Kit (Packard #6760607).
JNK inhibitory activity which is the effect of the compound of the present invention was calculated as inhibition ratio (%) by the following equation: Inhibition ratio(%)=[(AC−AX)/(Ac−AB)]×100
AB: measured value without enzyme;
AC: measured value with enzyme and without a test compound;
AX: measured value with enzyme and a test compound

Row | pIC50 | SMILES
1 | 6.13 | COc1cc(CNc2cc(-c3ccsc3)nc3ccnn23)cc(OC)c1OC [Example 3, 5-thien-3-yl-N-(3,4,5-trimethoxybenzyl)pyrazolo[1,5-a]pyrimidin-7-amine]
2 | 6.48 | Clc1cc(NCc2ccc3c(c2)OCO3)n2nccc2n1 [Example 1(1), N-(1,3-benzodioxol-5-ylmethyl)-5-chloropyrazolo[1,5-a]pyrimidin-7-amine]
